Data published in patent publication EP1311531B1, “STEROID DERIVED ANTIBIOTICS” (Brigham Young University, priority 2000, dated 2002).
Converted amounts (≈) assume the structure as drawn.

Test system: Gram-negative bacteria
Experiment: MIC and permeabilization measurements, strain not stated (Table 14, Fig. 5)
Conditions: Table 14

MIC: 85 µg/mL (≈ 110 µM)
a: concentration of cholic acid derivatives required to lower MIC of erythromycin to 1 µg/ML: 45 µg/mL
b: concentration of cholic acid derivatives required to lower MIC of novobiocin to 1 µg/ML: 60 µg/mL
SMILES: CC(CCCO)C1CCC2C3C(NC(=O)C(N)CCCCN)CC4CC(NC(=O)C(N)CCCCN)CCC4(C)C3CC(NC(=O)C(N)CCCCN)C12C (stereo not drawn) [Compound 209c]
